In patent US8937096B2, “Use of benzo-fused heterocyle sulfamide derivatives for the treatment of mania and bipolar disorder” (priority 2005, dated 2015):
Like-named read-outs stand apart in the source and are kept apart here.

Experiments:
Wistar rats = test: Chronic Mild Stress Model (Chronic); assay type: in vivo, rat
Excerpt: In the chronic mild stress (CMS) model rats subjected to a variety of mild stressors for a prolonged period of time show, among other behavioral, biochemical and physiological impairments, a substantial decrease in their responsiveness to rewarding stimuli. This deficit is usually monitored by a decrease in the consumption of the 1% sucrose solution, but can also be seen in other tests, such as place preference conditioning or intracranial self-stimulation. Since the subsensitivity to reward appears to reflect anhedonia (inability to experience pleasure), which is a core symptom of major depressive disorders, the CMS procedure may serve as a suitable research tool in studies into the mechanisms of antidepressant action.
Male Wistar rats were brought into the laboratory two months before the start of the experiment. Except as described below, the animals were singly housed with food and water freely available, and were maintained on a 12-h light/dark and in a constant temperature (22±2° C.) and humidity (50±5%) conditions.
The animals were first trained to consume a 1% sucrose solution; training consisted of eight 1 h baseline tests in which sucrose was presented, in the home cage, following 14 h food and water deprivation; the sucrose intake was measured by weighing pre-weighed bottles containing the sucrose solution, at the end of the test. Subsequently, sucrose consumption was monitored, under similar conditions, at weekly intervals throughout the whole experiment.
On the basis of their sucrose intakes in the final baseline test, the animals were divided into two matched groups. One group of animals was subjected to the chronic mild stress procedure for a period of 7 consecutive weeks. […]
All results obtained in this study were analyzed by multiple analyses of variance with three between-subjects factors (stress/control, drug treatments and successive sucrose tests). […]

CH3/HeJ mice = test: Tail Suspension Test (Acute); assay type: in vivo, mouse; details: for ED50: Mus musculus, po, 7 min; for Immobility Emax % of C / Mobility Emax % of C: 7-min session
Protocol: In the tail suspension test (TST) for evaluating compounds for anti-depressant activity, mice are suspended by their tails to a metal or plastic rod using clip or scotch tape. The test is usually quite short, 5-7 min, and the amount of time the mice spend immobile is recorded either manually or with an automated device. Agents which have antidepressant activity, decrease the duration of immobility of mice in this test.
The basic apparatus for the tail suspension assay consisted of a yellow plastic chamber (91×45×10 cm) divided for four arenas 25, 20, 20 and 25 cm wide separated by yellow plastic walls 0.75 cm thick. Mice were suspended by their tails using a rubber clip (7 cm long) attached to the plastic rod that was placed on the top of a testing chamber half way through its deep dimension. Each experimental session was videotaped and analyzed for four animals in the real time by computer software (“Depression Scan” Clever Sys Inc.). The computer justification of immobility was calibrated with the use of animals dosed with lorazepam while justification of movement was calibrated with the high dose of desipramine treated animals. […] The settings were adjusted separately for dark (CH3/HeJ and C57BI/6J strains) and white mice (Balb/cJ and A/J strains). A yellow background was used for dark mice and a blue background was used to record movements of white mice.
The ability of a test compound to decrease the duration of immobility, or increase mobility was measured using the TST procedure described above.
Data were analyzed using GraphPad Prism software (GraphPad Software, Inc. San Diego, Calif.). For the comparison of the effect of different doses for various drugs on immobility in the TST one-way analyses of variance (ANOVA) were used followed by Dunnett's multiple comparison test. […] The ED50 and Emax values were compared using two-way ANOVA and Bonferroni post-hoc test.
Positive controls included duloxetine (DLX), venlafaxine (VLX) and desipramine (DMI) which were dissolved in 0.5% methylcellulose and lorazepam (LOR) which was suspended in 0.5% of methylcellulose in water by sonication. All drugs and vehicles were administered orally (p.o.) by gavage in a volume of 10 mL/kg.
The mice were ordered 5 weeks old and at the beginning of experiment their weight was 20±5 g. Animals were housed in groups of four in plastic cages at an ambient temperature of 21° C. to 23° C. with an automated 12/12 hours light/dark cycle and access to water and a commercial rodent food ad libitum.
Each experiment consisted of seven treatment groups with four animals per group. A total of 28 animals per experiment were used. Every two consecutive experiments (1 & 2, 3 & 4, 5 & 6 and 7 & 8) were exact replicas of each other. […] One treatment group of four animals in each experiment was a vehicle treated group. In addition to the vehicle treated group, the effects of DMI at 6 mg/kg, 12 mg/kg, 30 mg/kg, 60 mg/kg and 120 mg/kg and LOR at 5 mg/kg were tested in experiments 1 and 2. […] In experiments 5 and 6 the effects of DLX at 6 mg/kg, 12 mg/kg, 30 mg/kg, 60 mg/kg, 120 mg/kg and LOR at 5 mg/kg were tested.

Structure (SMILES) | treatment time after which increases in sucrose intake in stressed animals reached statistical significance vs Week 0 (Wistar rats; stressed animals, i.p. once daily) | ED50 (CH3/HeJ mice; read-out: Immobility ED50) | ED50 (CH3/HeJ mice; read-out: Mobility ED50) | Immobility Emax % of C (CH3/HeJ mice; p.o., CH3/HeJ mice) | Mobility Emax % of C (CH3/HeJ mice; p.o., CH3/HeJ mice) | activity in the CMS model of depression (Wistar rats; 12, 30 or 60 mg/kg i.p.) | doses at which effects were statistically significant vs vehicle (CH3/HeJ mice; p.o., CH3/HeJ mice) | Immobility Emax % of C (CH3/HeJ mice; p.o., CH3/HeJ mice, listed as Cmpd #8) | immobility time and mobility time (CH3/HeJ mice; p.o., CH3/HeJ mice, 7-min testing session)
COc1ccc(C(CN(C)C)C2(O)CCCCC2)cc1 (centres unmarked) [Venlafaxine, venlafaxine, reference compound] | four weeks | 25 mg/kg | 21.1 mg/kg | 63.7 % of C | 412.6 % of C |  |  |  | 
NS(=O)(=O)NC[C@H]1COc2cc(Cl)ccc2O1 [Compound #8, (2S)-(−)-N-(6-Chloro-2,3-dihydro-benzo[1,4]dioxin-2-ylmethyl)-sulfamide] |  |  |  | 22.2±6.1 % of C | 95.6 % of C | inactive in the CMS model of depression | 12 mg/kg, 60 mg/kg, and 120 mg/kg | 22.2 % of C | decreased immobility time and increased mobility time
